Measured values taken from US9187429B2, “Phenyl-tetrahydroisoquinoline derivatives” (Hoffmann-La Roche Inc., priority 2012, dated 2015).

Tests used:
[1] = biological target: human CYP11B1 (Homo sapiens (Human), UniProt P15538); assay: G-402 cellular enzyme assay, human CYP11B1 (cortisol release); format: cell-based; settings: G-402 cells expressing human CYP11B1, 1 μM Deoxycortisol
Source text: (§1) The expression plasmids contains the ORF for either human/cyno CYP11B1 or CYP11B2 under the control of a suitable promoter (CMV-promoter) and a suitable resistance marker (neomycin). Using standard techniques the expression plasmid is transfected into G-402 cells and these cells are then selected for expressing the given resistance markers. Individual cell-clones are then selected and assessed for displaying the desired enzymatic activity using 11-Deoxycorticosterone (Cyp 11B2) or 11-Deoxycortisol (Cyp 11B1) as a substrate.
(§2) G-402 cells expressing CYP11 constructs were established as described above and maintained in McCoy's 5a Medium Modified, ATCC Catalog No. 30-2007 containing 10% FCS and 400 μg/ml G418 (Geneticin) at 37° C. under an atmosphere of 5% CO2/95% air. […] For assaying enzymatic activity, cells were plated onto 96 well plates and incubated for 16 h. An aliquot of the supernatant is then transferred and analyzed for the concentration of the expected product (Aldosterone for CYP11B2; Cortisol for CYP11B1). The concentrations of these steroids can be determined using HTRF assays from CisBio analyzing either Aldosterone or Cortisol.
(§3) Inhibition of the release of produced steroids can be used as a measure of the respective enzyme inhibition by test compounds added during the cellular enzyme assay. The dose dependent inhibition of enzymatic activity by a compound is calculated by means of plotting added inhibitor concentrations (x-axes) vs. measured steroid/product level (y-axes). The inhibition is then calculated by fitting the following 4-parameter sigmoidal function (Morgan-Mercer-Flodin (MMF) model) to the raw data points using the least squares method:
(§4) [formula] wherein, A is the maximum y value, B is the EC50 factor determined using XLFit, C is the minimum y value and D is the slope value.
(§5) EC50 values for compounds claimed herein were tested with the G402-based assay system described. Cyp 11B2 enzyme activity was tested in presence of 1 μM Deoxycorticosterone and variable amounts of inhibitors; Cyp 11B1 enzyme activity was tested in presence of 1 μM Deoxycortisol and variable amounts of inhibitors.

[2] = biological target: CYP11B2 (Homo sapiens (Human), UniProt P19099); assay: G-402 cellular enzyme assay, human CYP11B2 (aldosterone release); format: cell-based; settings: G-402 cells expressing human CYP11B2, 1 μM Deoxycorticosterone
Source text: as §1, §2, §3, §4, §5

Chain of human CYP11B1 (P15538 25-503): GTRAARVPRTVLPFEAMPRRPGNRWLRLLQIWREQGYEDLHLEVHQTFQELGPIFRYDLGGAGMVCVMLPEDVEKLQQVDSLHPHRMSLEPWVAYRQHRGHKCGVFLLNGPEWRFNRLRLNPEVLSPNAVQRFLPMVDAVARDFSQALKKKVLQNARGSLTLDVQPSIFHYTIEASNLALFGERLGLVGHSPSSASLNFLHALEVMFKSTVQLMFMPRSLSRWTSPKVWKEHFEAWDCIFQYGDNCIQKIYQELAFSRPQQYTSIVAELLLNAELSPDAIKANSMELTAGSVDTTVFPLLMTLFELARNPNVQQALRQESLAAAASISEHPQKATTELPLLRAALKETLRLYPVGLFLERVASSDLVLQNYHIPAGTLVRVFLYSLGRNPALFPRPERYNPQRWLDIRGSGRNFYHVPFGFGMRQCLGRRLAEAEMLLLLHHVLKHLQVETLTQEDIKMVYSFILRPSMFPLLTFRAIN
Chain of CYP11B2 (P19099 25-503): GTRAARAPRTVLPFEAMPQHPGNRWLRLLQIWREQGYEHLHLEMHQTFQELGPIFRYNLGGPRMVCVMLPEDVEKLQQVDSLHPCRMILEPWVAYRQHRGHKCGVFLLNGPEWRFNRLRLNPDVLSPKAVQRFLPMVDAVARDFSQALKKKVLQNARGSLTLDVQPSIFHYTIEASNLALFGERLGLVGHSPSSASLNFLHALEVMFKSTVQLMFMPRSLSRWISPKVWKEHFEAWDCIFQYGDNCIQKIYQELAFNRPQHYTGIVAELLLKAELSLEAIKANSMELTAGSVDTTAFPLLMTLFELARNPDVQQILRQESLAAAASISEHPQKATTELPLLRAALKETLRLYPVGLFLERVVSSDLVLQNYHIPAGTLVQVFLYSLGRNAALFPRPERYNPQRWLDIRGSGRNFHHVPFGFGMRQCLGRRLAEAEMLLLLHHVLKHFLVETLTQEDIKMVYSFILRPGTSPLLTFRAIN

| SMILES | EC50 [1] [nM] | EC50 [2] [nM] |
| --- | --- | --- |
| N#Cc1ccc(-c2cncc3c2CCCC3N)cc1 (racemic) [Example 1, (rac)-4-(8-Amino-5,6,7,8-tetrahydroisoquinolin-4-yl)benzonitrile] | 173 | 42 |
| CCS(=O)(=O)NC1CCCc2c(-c3ccc(C#N)cc3)cncc21 (racemic) [Example 2, (rac)-N-(4-(4-Cyanophenyl)-5,6,7,8-tetrahydroisoquinolin-8-yl)ethanesulfonamide] | 1090 | 207 |
| CCCNS(=O)(=O)NC1CCCc2c(-c3ccc(C#N)cc3)cncc21 (racemic) [Example 3, (rac)-N-[4-(4-Cyanophenyl)-5,6,7,8-tetrahydroisoquinolin-8-yl]-N′-propylsulfuric diamide] | 291 | 52 |
| CCNC(=O)NC1CCCc2c(-c3ccc(C#N)cc3)cncc21 (racemic) [Example 4, (rac)-1-(4-(4-Cyanophenyl)-5,6,7,8-tetrahydroisoquinolin-8-yl)-3-ethylurea] | 2170 | 220 |
| CCC(=O)NC1CCCc2c(-c3ccc(C#N)cc3)cncc21 (racemic) [Example 5, (rac)-N-(4-(4-Cyanophenyl)-5,6,7,8-tetrahydroisoquinolin-8-yl)propionamide] | 760 |  |
| CC(=O)NC1CCCc2c(-c3ccc(C#N)cc3)cncc21 (racemic) [Example 8, (rac)-N-(4-(4-Cyanophenyl)-5,6,7,8-tetrahydroisoquinolin-8-yl)acetamide] | 422 | 43 |
| CCOC(=O)NC1CCCc2c(-c3ccc(C#N)cc3)cncc21 (racemic) [Example 10, (rac)-Ethyl 4-(4-cyanophenyl)-5,6,7,8-tetrahydroisoquinolin-8-ylcarbamate] | 658 | 67 |
| N#Cc1ccc(-c2cncc3c2CCCC3O)cc1 (racemic) [Example 11, (rac)-4-(8-Hydroxy-5,6,7,8-tetrahydroisoquinolin-4-yl)benzonitrile] | 31 | 8 |
| CCNC(=O)OC1CCCc2c(-c3ccc(C#N)cc3)cncc21 (racemic) [Example 12, (rac)-4-(4-Cyanophenyl)-5,6,7,8-tetrahydroisoquinolin-8-yl ethylcarbamate] | 30 | 25 |
| COC1CCCc2c(-c3ccc(C#N)cc3)cncc21 (racemic) [Example 13, (rac)-4-(8-Methoxy-5,6,7,8-tetrahydroisoquinolin-4-yl)benzonitrile] | 8 | 10 |
| Cc1ccc(C2(O)CCCc3c(-c4ccc(C#N)cc4)cncc32)cc1C (racemic) [Example 14, (rac)-4-(8-(3,4-Dimethylphenyl)-8-hydroxy-5,6,7,8-tetrahydroisoquinolin-4-yl)benzonitrile] | 73 | 16 |
| CCC(=O)NC1CCc2c(-c3ccc(C#N)cc3)cncc21 (racemic) [Example 17, (rac)-N-(4-(4-Cyanophenyl)-6,7-dihydro-5H-cyclopenta[c]pyridin-7-yl)propionamide] | 511 | 22 |
| CCC(=O)NC1CCCc2c(-c3ccc(F)c(Cl)c3)cncc21 (racemic) [Example 20, (rac)-N-(4-(3-Chloro-4-fluorophenyl)-5,6,7,8-tetrahydroisoquinolin-8-yl)propionamide] | 480 | 24 |
| CCC(=O)NC1CCCc2c(-c3ccc(C(F)(F)F)cc3)cncc21 (racemic) [Example 21, (rac)-N-(4-(4-(Trifluoromethyl)phenyl)-5,6,7,8-tetrahydroisoquinolin-8-yl)propionamide] | 7090 | 82 |
| CCC(=O)NC1CCCc2c(-c3ccc(Cl)cc3)cncc21 (racemic) [Example 24, (rac)-N-(4-(4-Chlorophenyl)-5,6,7,8-tetrahydroisoquinolin-8-yl)propionamide] | 1420 | 31 |
| CCC(=O)NC1CCCc2c(-c3ccc(F)c(C)c3)cncc21 (racemic) [Example 27, (rac)-N-(4-(4-Fluoro-3-methylphenyl)-5,6,7,8-tetrahydroisoquinolin-8-yl)propionamide] | 625 | 14 |

| SMILES | EC50 [1] [nM] | EC50 [2] [nM] |
| --- | --- | --- |
| CCC(=O)NC1CCCc2c(-c3ccc(Cl)cc3F)cncc21 (racemic) [Example 30, (rac)-N-(4-(4-Chloro-2-fluorophenyl)-5,6,7,8-tetrahydroisoquinolin-8-yl)propionamide] | 1500 | 28 |
| CCC(=O)NC1CCCc2c(-c3ccc(C(F)(F)F)cc3F)cncc21 (racemic) [Example 33, (rac)-N-(4-(2-Fluoro-4-(trifluoromethyl)phenyl)-5,6,7,8-tetrahydroisoquinolin-8-yl)propionamide] | 14700 | 159 |
| CCC(=O)NC1CCCc2c(-c3ccc(Cl)c(F)c3)cncc21 (racemic) [Example 36, (rac)-N-(4-(4-Chloro-3-fluorophenyl)-5,6,7,8-tetrahydroisoquinolin-8-yl)propionamide] | 1010 | 14 |
| CCC(=O)NC1CCCc2c(-c3ccc(C(F)(F)F)c(F)c3)cncc21 (racemic) [Example 39, (rac)-N-(4-(3-Fluoro-4-(trifluoromethyl)phenyl)-5,6,7,8-tetrahydroisoquinolin-8-yl)propionamide] | 3240 | 29 |
| CCC(=O)NC1CCCc2c(-c3ccc(F)cc3F)cncc21 (racemic) [Example 42, (rac)-N-(4-(2,4-Difluorophenyl)-5,6,7,8-tetrahydroisoquinolin-8-yl)propionamide] | 2400 | 109 |
| CCC(=O)NC1CCCc2c(-c3cc(F)c(F)cc3F)cncc21 (racemic) [Example 43, (rac)-N-(4-(2,4,5-Trifluorophenyl)-5,6,7,8-tetrahydroisoquinolin-8-yl)propionamide] | 1150 | 27 |
| CCC(=O)NC1CCCc2c(-c3ccc(C#N)cc3)cncc21 (single isomer, unassigned; (+)) [Example 7, (+)-(R or S)—N-(4-(4-Cyanophenyl)-5,6,7,8-tetrahydroisoquinolin-8-yl)propionamide] | 263 |  |
| C[C@@H](O)C(=O)NC1CCCc2c(-c3ccc(C(F)(F)F)cc3)cncc21 (single isomer, unassigned; (+)) [Example 47, (+)-(R)-2-Hydroxy-N—[(R or S)-4-(4-trifluoromethyl-phenyl)-5,6,7,8-tetrahydro-isoquinolin-8-yl]-propionamide] |  | 5750 |
| CCC(=O)NC1CCCc2c(-c3ccc(C#N)cc3)cncc21 (single isomer, unassigned; (-)) [Example 6, (−)-(S or R)—N-(4-(4-Cyanophenyl)-5,6,7,8-tetrahydroisoquinolin-8-yl)propionamide] | 11700 |  |
| CCC(=O)NC1CCCc2c(-c3ccc(C(F)(F)F)cc3)cncc21 (single isomer, unassigned; (-)) [Example 22, (−)-(S or R)—N-(4-(4-(Trifluoromethyl)phenyl)-5,6,7,8-tetrahydroisoquinolin-8-yl)propionamide] |  | 6380 |
| CCC(=O)NC1CCCc2c(-c3ccc(Cl)cc3F)cncc21 (single isomer, unassigned; (-)) [Example 31, (−)-(S or R)—N-(4-(4-Chloro-2-fluorophenyl)-5,6,7,8-tetrahydroisoquinolin-8-yl)propionamide] |  | 1220 |
| CCC(=O)NC1CCc2c(-c3ccc(C(F)(F)F)cc3)cncc21 (single isomer, unassigned; (-)) [Example 50, (−)-(S or R)—N-(4-(4-(Trifluoromethyl)phenyl)-6,7-dihydro-5H-cyclopenta[c]pyridin-7-yl)propionamide] |  | 5770 |
| C[C@@H](O)C(=O)NC1CCc2c(-c3ccc(C(F)(F)F)cc3)cncc21 (single isomer, unassigned; (-)) [Example 53, (−)-(R)-2-Hydroxy-N—((S or R)-4-(4-(trifluoromethyl)phenyl)-6,7-dihydro-5H-cyclopenta[c]pyridin-7-yl)propanamide] |  | 9100 |
| CCC(=O)NC1CCc2c(-c3ccc(F)c(C)c3)cncc21 (single isomer, unassigned; (-)) [Example 59, (−)-(S or R)—N-(4-(4-Fluoro-3-methylphenyl)-6,7-dihydro-5H-cyclopenta[c]pyridin-7-yl)propionamide] |  | 1660 |
| CCS(=O)(=O)NC1CCc2c(-c3ccc(C(F)(F)F)c(F)c3)cncc21 (single isomer, unassigned; (-)) [Example 72, (−)-(S or R)—N-(4-(3-Fluoro-4-(trifluoromethyl)phenyl)-6,7-dihydro-5H-cyclopenta[c]pyridin-7-yl)ethanesulfonamide] |  | 16500 |
